Article PMC2074394 (British Journal of Cancer, 1996)
Entries after “also recorded” stand apart in the source; their conditions may differ. Read-outs that look alike come from different tables or passages of the source.

Key:
MCF-7/Adr cells [1] = experiment: Flow cytometric analysis of R123 accumulation and efflux; type: cell-based, human; conditions: for Increase over control levels in R123 accumulation: 20 min together with R123; for Effect on R123 accumulation or efflux: 640 nM; as to Effect on R123 efflux (Table III summary): key: +: potent effect; (+): weak effect; -: no effect
From the text: (§1) In the present study these five compounds are compared as modifiers of P-gp-mediated MDR. […] The overall objective of the work was to explore the mechanisms of cytostasis and resistance reversal caused by kinase inhibitors in a MDR cell line, with the ultimate aim to assess the potential use of such compounds in cancer therapy. […] [3H]Vinblastine (11 or 21 Ci mmol -') was obtained from Amersham (Amersham, UK). […] Cell culture medium and serum were purchased from Gibco BRL (Paisley, UK). Stock solutions of drugs were prepared in dimethyl sulphoxide (DMSO) and stored at -20?C. […] Cultures of both cell types contained L-glutamine (2 mM), penicillin (100 IU ml-') and streptomy- cin (100 ug ml-1). Cells were subcultured when they were confluent. […] After a 4 h attachment period compounds at various concentrations were added. […] Cells were trypsinised and counted using a model ZM Coulter counter. Incubations were conducted in duplicate. Growth inhibition was expressed as percentage of cell number in drug-free control incubates. […] IC50 values were derived from three separate experiments each performed in duplicate. The resistance ratios shown in Table I are the ratios of IC50 in MCF-7/Adr over IC50 in MCF-7, or IC50 in MCF-7/Adr in the absence of reserpine over IC50 in its presence. Flow cytometric analysis of R123 accumulation and efflux Cells were maintained in medium without phenol red but with FCS (10%) and gentamicin (50 µg ml-'). […] Cells were detached by treatment with trypsin-EDTA, washed with ice-cold PBS and resuspended in PBS (1 ml), to which propidium iodide (10 Mg) was added. […] Single- and multi-parameter data of forward angle scatter, side scatter, R123 fluorescence and propidium iodide fluorescence were collected for 104 cells. Fluorescence was measured on a four-decade log scale. The data were analysed using Lysis 2 software. Only R123 fluorescence of viable, propidium iodide-excluding cells was analysed. [/II] Vinblastine accumndation ini cells MCF-7 and MCF-7jAdr cells were grown to confluency in 12-well plates. […] The experiment was started by addition of [3H]vinblastine (1 -2 nM) to the incubate. […] Cells were incubated at 37'C for I h, after which the medium was aspirated and replaced with scintillant (1 ml). […] For each membrane preparation 109 cells were homogenised in 40 ml ice-cold Tris buffer [Tris-HC1 50 mM, phenylmethylsulphonyl fluoride (PMSF) 0.1 mM, pH 7.4] to which 0.1 mM EDTA had been added. The homogenate was centrifuged at 3500 g for 10 min; the supernatant was recentrifuged at 40 000 g for 20 min, the resultant pellet was resuspended in Tris buffer (10 ml). […] Filters were washed twice with 5 ml of ice-cold Tris-HCI containing magnesium chloride (both 20 mM). Assays were performed in duplicate. Filters were dried and retained radioactivity was quantitated by liquid scintillation counting.

MCF-7/Adr cells [2] = experiment: Inhibition of growth of multidrug-resistant MCF-7/Adr cells, without or with reserpine; type: cell-based, human; conditions: for IC50: 4 days incubation, without reserpine; for Ratio (-reserpine / +reserpine): IC50 in MCF-7/Adr in the absence of reserpine over IC50 in its presence; for Ratio (MCF-7/Adr / MCF-7), resistance ratio: IC50 in MCF-7/Adr over IC50 in MCF-7; as to MDR reversal by reserpine (Table III summary): key: +: potent effect; (+): weak effect; -: no effect; as to Resistance in MCF-7/Adr cells (Table III summary): key: +: potent effect; (+): weak effect; -: no effect
P-gp = P-gp (Homo sapiens, UniProt P08183); experiment: Inhibition of binding of [3H]vinblastine to P-gp in MCF-7/Adr membranes
Sequence of P-gp (P08183 whole entry): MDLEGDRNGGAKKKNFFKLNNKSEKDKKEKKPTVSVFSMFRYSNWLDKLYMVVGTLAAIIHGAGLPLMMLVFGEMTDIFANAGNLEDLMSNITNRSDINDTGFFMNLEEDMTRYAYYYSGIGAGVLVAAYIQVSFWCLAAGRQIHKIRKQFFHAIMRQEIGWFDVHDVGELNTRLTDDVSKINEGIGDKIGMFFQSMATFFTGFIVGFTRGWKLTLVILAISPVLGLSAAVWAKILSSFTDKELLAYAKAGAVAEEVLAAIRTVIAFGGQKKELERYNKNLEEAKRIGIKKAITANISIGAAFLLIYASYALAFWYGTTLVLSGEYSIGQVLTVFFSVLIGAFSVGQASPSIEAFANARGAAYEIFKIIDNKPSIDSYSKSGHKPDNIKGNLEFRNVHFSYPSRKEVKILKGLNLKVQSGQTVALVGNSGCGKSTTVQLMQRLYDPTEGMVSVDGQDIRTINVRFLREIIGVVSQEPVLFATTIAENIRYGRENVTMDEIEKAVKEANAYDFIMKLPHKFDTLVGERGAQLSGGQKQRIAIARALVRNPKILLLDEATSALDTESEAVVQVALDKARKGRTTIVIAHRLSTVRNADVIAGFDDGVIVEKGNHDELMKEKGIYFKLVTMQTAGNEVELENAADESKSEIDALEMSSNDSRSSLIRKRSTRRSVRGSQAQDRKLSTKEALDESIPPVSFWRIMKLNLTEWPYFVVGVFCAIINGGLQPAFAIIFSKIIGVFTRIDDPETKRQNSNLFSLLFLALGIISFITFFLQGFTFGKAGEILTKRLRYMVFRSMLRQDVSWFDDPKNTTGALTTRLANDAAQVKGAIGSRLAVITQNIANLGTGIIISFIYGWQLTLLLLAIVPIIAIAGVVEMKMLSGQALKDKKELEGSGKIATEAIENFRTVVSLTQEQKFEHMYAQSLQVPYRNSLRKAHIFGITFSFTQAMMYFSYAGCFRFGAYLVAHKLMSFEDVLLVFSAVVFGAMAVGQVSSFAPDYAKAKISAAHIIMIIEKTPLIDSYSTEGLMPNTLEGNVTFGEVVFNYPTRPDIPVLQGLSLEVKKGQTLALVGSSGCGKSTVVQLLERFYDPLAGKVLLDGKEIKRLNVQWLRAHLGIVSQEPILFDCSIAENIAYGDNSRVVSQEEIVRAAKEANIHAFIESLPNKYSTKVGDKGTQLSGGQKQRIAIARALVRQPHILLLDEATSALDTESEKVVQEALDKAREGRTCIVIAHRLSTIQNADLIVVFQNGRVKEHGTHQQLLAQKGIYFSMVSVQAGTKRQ
From the text: as §1

PKC = conditions: cited from earlier work; for IC50 / PKC inhibition, potency (Table III summary): ref Courage et al., 1995; for IC50: read-out: IC50 for enzyme inhibition, PKC derived from the cytosol of MCF-7 cells
MCF-7/Adr cells [3] = experiment: Sensitisation of MCF-7/Adr cells against doxorubicin (preliminary study); type: cell-based, human; conditions: unpublished preliminary study
MCF-7/Adr cells [4] = experiment: [3H]Vinblastine accumulation in MCF-7/Adr cells; type: cell-based, human; conditions: 300 nM, 1 h, 37 C; control cells 1280 d.p.m.
From the text: as §1, with “were” for “were washed twice with 5 ml of ice-cold Tris-HCI containing magnesium chloride (both 20 mM). Assays were performed in duplicate. Filters were”

MCF-7 cells = experiment: Inhibition of growth of MCF-7 wild-type cells (4 days, Coulter count); type: cell-based, human; conditions: for IC50: 4 days incubation, mean of three experiments, read-out: IC50 MCF-7 (concentration which caused inhibition of cell growth by 50%)
From the text: as §1, with “were” for “were washed twice with 5 ml of ice-cold Tris-HCI containing magnesium chloride (both 20 mM). Assays were performed in duplicate. Filters were”

[5] = Homo sapiens, NCI/ADR-RES, 96 h
[6] = read-out: Ki, inhibition of binding of [3H]vinblastine to P-gp, MCF-7/Adr membranes, 90 min, 23 C, mean, s.e.m.
For PKC inhibition, potency (Table III summary) in this document: key: +: potent effect; (+): weak effect; -: no effect.
For PKC inhibition, specificity (Table III summary) in this document: key: +: potent effect; (+): weak effect; -: no effect.

SMILES	Effect on R123 efflux (Table III summary) (MCF-7/Adr cells [1])	Inhibition of [3H]vinblastine binding (Table III summary) (P-gp)	[3H]Vinblastine accumulation (MCF-7/Adr cells [4])	Ratio (-reserpine / +reserpine) (MCF-7/Adr cells [2])	IC50 (MCF-7/Adr cells [2]) [nM]	Ratio (MCF-7/Adr / MCF-7), resistance ratio (MCF-7/Adr cells [2])	IC50 (MCF-7 cells) [nM]	Ki (P-gp; [6]) [nM]	PKC inhibition, specificity (Table III summary) (PKC)	PKC inhibition, potency (Table III summary) (PKC)	further results
CN[C@@H]1C[C@H]2O[C@@](C)([C@@H]1OC)n1c3ccccc3c3c4c(c5c6ccccc6n2c5c31)C(=O)NC4 [staurosporine]	+	(+)	–	–	–	–	–	–	–	–	Increase over control levels in R123 accumulation (MCF-7/Adr cells [1]; 80 nM): 40%; Increase over control levels in R123 retention (efflux) (MCF-7/Adr cells [1]; 20 min, 0.08 µM): 75%; IC50 (MCF-7/Adr cells [2]; [5]): 6.5 nM; Ki (P-gp): 145 nM; IC50 (PKC): 16 nM
CO[C@@H]1[C@H](N(C)C(=O)c2ccccc2)C[C@H]2O[C@]1(C)n1c3ccccc3c3c4c(c5c6ccccc6n2c5c31)C(=O)NC4 [CGP 41251, 4'-N-benzoyl staurosporine]	+	+	3200 d.p.m.	–	–	–	–	–	–	–	Increase over control levels in R123 retention (efflux) (MCF-7/Adr cells [1]; 80 nM, 20 min after loading with and removal of the dye): 150%; Increase over control levels in R123 accumulation (MCF-7/Adr cells [1]; 80 nM): 47%; Increase of sensitivity of cells towards doxorubicin (factor) (MCF-7/Adr cells [3]; 80 nM): 2; Ki (P-gp): 32 nM
COc1cccc2c1C(=O)c1c(O)c3c(c(O)c1C2=O)C[C@@](O)(C(=O)CO)C[C@@H]3O[C@H]1C[C@H](N)[C@H](O)[C@H](C)O1 [doxorubicin]	–	–	–	16	–	–	–	–	–	–	IC50 (MCF-7/Adr cells [2]; [5]): 1600 nM
Cn1cc(C2=C(c3cn(CCCSC(=N)N)c4ccccc34)C(=O)NC2=O)c2ccccc21 [RO 31 8220]	–	(+)	no effect	6.4	11300	12.6	897	210	+	+	Effect on R123 accumulation or efflux (MCF-7/Adr cells [1]): inactive; also recorded: did not alter; MDR reversal by reserpine (Table III summary) (MCF-7/Adr cells [2]): +; Resistance in MCF-7/Adr cells (Table III summary) (MCF-7/Adr cells [2]): +; Effect of reserpine on sensitivity of wild-type MCF-7 cells (MCF-7 cells; result not shown): did not affect; Effect on sensitivity of cells towards doxorubicin (MCF-7/Adr cells [3]; 2 μM): no effect; IC50 (PKC): 48 nM
CN(C)CCCn1cc(C2=C(c3c[nH]c4ccccc34)C(=O)NC2=O)c2ccccc21 [GF 109203X]	–	–	1790 d.p.m.	1.5	8800	1.2	7300	780	+	+	Effect on R123 accumulation or efflux (MCF-7/Adr cells [1]): inactive; also recorded: did not alter
COC(=O)[C@H]1[C@H]2C[C@@H]3c4[nH]c5cc(OC)ccc5c4CCN3C[C@H]2C[C@@H](OC(=O)c2cc(OC)c(OC)c(OC)c2)[C@@H]1OC [reserpine]	–	–	–	–	–	–	–	–	–	–	Effect on proliferation (MCF-7/Adr cells [2]; reserpine 5 μM): did not interfere with proliferation; Increase of sensitivity towards doxorubicin (MCF-7/Adr cells [2]; reserpine 5 μM, preliminary experiments): 14.3 fold
CN[C@@H]1C[C@H]2O[C@@](C)([C@@H]1OC)n1c3ccccc3c3c4c(c5c6ccccc6n2c5c31)C(=O)N[C@H]4O [UCN-01, 7-hydroxystaurosporine]	(+)	(+)	2110 d.p.m.	3.5	123	7.0	17.5	293	+	+	Concentration with significant effect on R123 accumulation (MCF-7/Adr cells [1]; tested 10-640 nM): 80 nM; Concentration with significant effect on dye efflux (MCF-7/Adr cells [1]; tested 10-640 nM): 320 nM; MDR reversal by reserpine (Table III summary) (MCF-7/Adr cells [2]): +; Resistance in MCF-7/Adr cells (Table III summary) (MCF-7/Adr cells [2]): +
